Calls of active or inactive are those of the source.
Columns and labels:
[1] = A cytotoxicity screen of small molecule inhibitors of the PhoP region in Salmonella typhi identified in the primary screen. [Related pubchem assays: 1850, 1864, 1985 ]; assay type: functional
Cytochrome P450 2C9 [2] = biological target: T1, Cytochrome P450 2C9 (Homo sapiens, UniProt P11712); conditions: Potency
Cytochrome P450 2D6 = Cytochrome P450 2D6 (Homo sapiens, UniProt P10635);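 note: CYP2D6 member of a cytochrome P450 panel assay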
Cytochrome P450 2D6, sequence (P10635 whole entry): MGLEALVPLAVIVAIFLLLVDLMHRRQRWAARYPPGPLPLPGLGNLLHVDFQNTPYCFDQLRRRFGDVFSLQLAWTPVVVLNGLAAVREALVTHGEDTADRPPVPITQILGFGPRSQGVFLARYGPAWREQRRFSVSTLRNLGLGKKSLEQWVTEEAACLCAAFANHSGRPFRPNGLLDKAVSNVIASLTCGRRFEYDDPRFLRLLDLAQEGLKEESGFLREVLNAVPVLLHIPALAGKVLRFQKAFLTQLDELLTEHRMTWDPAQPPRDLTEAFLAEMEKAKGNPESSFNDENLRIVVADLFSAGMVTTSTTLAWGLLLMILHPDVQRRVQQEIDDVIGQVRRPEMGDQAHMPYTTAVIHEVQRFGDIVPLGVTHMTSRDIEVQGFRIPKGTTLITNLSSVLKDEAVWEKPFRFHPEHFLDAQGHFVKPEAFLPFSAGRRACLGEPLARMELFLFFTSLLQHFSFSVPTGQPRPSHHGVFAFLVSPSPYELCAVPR

Cytochrome P450 2C9 [3] = biological target: T1, Cytochrome P450 2C9
[4] = inhibitors of firefly luciferase expression or activity, dose response, H4 neuroglioma cells, luminescence (AID 1990); assay type: functional, cell-based
[5] = Luminescence Cell-Based Dose Response HTS to Identify Inhibitors of 5'UTR Stem-Loop Driven Prion Protein mRNA Translation in H4 Neuroglioblastoma Cells. [Related pubchem assays: 1827 (Project Summary), 1813 (Primary HTS)]; assay type: functional
Vero = assay: host cell cytotoxicity of antiviral hits, dose response, cytotoxicity control for West Nile virus antiviral project, secondary assay (AID 1650); assay type: functional; conditions: Chlorocebus sabaeus
[6] = inhibitors of SNCA 5'UTR-driven reporter translation, confirmation, H4 neuroglioma cells, luminescence (AID 1988); assay type: functional, cell-based
[7] = Luminescence Cell-Based Dose Retest to Confirm Inhibitors of Cancer Stem Cells. [Related pubchem assays (depositor defined):AID2717, AID2721]; assay type: functional; conditions: Homo sapiens
Galanin receptor type 3 = biological target: T2, Galanin receptor type 3 (Homo sapiens, UniProt O60755); assay: Fluorescence-based cell-based primary high throughput dose response assay to identify antagonists of the Galanin Receptor 3 (GalR3).; assay type: functional
T2 sequence (O60755 whole entry): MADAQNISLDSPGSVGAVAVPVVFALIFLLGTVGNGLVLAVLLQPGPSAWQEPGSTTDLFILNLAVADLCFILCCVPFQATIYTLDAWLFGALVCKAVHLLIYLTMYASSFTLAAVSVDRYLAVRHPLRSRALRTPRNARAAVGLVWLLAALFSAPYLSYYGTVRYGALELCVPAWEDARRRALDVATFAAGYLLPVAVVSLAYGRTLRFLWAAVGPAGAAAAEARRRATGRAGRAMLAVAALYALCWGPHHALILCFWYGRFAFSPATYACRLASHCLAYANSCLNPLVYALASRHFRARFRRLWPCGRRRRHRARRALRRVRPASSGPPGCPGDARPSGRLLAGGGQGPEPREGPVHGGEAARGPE

cells [8] = assay type: functional, cell-based; conditions: HEK-CNG
[9] = inhibitors of intracellular T. cruzi replication, confirmation, NIH3T3 host cells, beta-gal luminescence (AID 2044); assay type: functional, cell-based;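 note: intracellular parasites grown in NIH/3T3 mouse fibroblasts as host cells; luminescent beta-galactosidase reporter signal from transgenic T. cruzi replicating inside host cells; inhibitors lower the luminescence signal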
[10] = cytotoxicity toward NIH3T3 fibroblasts, dose response, counter-screen, cell-based, ATP luminescence, mouse fibroblasts (AID 2010); assay type: functional;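 note: cells exposed to compound for about 90 hours before reading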
[11] = inhibitors of Vif binding to APOBEC3G peptide, primary screen, biochemical, TR-FRET, GST-Vif 1-94, biotin-A3G peptide, dose response retest (AID 1117319); assay type: functional;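 note: TR-FRET signal of purified GST-Vif binding a biotinylated A3G peptide; inhibitors lower the FRET signal by blocking Vif and A3G binding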
[12] = HEp-2 cell cytotoxicity, dose response, cytotoxicity control for RSV inhibitor project, HTS (AID 2410); assay type: functional; conditions: human respiratory syncytial virus
cells [13] = assay: cells
[14] = biological target: T3, RNA-editing ligase 1, mitochondrial (Trypanosoma brucei brucei, UniProt P86926); assay: TbREL1 ligase inhibitors, dose response, biochemical, fluorescence, Trypanosoma brucei (AID 1117295); assay type: functional
T3 sequence (P86926 whole entry): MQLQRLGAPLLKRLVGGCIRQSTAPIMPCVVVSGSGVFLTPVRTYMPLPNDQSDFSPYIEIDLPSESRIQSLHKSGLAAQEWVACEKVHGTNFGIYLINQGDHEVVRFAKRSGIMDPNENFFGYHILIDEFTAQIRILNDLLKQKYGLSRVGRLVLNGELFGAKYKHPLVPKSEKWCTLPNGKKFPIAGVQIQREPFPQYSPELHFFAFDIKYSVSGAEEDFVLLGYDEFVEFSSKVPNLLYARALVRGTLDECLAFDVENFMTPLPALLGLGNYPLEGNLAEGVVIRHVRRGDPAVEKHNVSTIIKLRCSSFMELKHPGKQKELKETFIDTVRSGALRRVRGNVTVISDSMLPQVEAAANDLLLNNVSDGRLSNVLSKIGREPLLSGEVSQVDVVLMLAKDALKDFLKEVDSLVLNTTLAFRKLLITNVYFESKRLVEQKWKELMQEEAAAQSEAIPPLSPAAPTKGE

[15] = A Cell Based Secondary Assay To Explore Cytotoxicity of Compounds that Sensitize Mycobacterium Tuberculosis to Beta-Lactam Antibiotics.; assay type: functional
Aminopeptidase N = biological target: T4, Aminopeptidase N (Plasmodium falciparum FcB1/Columbia, UniProt O96935); assay: P. falciparum M1AAP inhibitors, biochemical, fluorogenic H-Leu-NHMec substrate, 1536-well (AID 1445); design: species or system Plasmodium falciparum 3D7, 3D7
T4 sequence (O96935 whole entry): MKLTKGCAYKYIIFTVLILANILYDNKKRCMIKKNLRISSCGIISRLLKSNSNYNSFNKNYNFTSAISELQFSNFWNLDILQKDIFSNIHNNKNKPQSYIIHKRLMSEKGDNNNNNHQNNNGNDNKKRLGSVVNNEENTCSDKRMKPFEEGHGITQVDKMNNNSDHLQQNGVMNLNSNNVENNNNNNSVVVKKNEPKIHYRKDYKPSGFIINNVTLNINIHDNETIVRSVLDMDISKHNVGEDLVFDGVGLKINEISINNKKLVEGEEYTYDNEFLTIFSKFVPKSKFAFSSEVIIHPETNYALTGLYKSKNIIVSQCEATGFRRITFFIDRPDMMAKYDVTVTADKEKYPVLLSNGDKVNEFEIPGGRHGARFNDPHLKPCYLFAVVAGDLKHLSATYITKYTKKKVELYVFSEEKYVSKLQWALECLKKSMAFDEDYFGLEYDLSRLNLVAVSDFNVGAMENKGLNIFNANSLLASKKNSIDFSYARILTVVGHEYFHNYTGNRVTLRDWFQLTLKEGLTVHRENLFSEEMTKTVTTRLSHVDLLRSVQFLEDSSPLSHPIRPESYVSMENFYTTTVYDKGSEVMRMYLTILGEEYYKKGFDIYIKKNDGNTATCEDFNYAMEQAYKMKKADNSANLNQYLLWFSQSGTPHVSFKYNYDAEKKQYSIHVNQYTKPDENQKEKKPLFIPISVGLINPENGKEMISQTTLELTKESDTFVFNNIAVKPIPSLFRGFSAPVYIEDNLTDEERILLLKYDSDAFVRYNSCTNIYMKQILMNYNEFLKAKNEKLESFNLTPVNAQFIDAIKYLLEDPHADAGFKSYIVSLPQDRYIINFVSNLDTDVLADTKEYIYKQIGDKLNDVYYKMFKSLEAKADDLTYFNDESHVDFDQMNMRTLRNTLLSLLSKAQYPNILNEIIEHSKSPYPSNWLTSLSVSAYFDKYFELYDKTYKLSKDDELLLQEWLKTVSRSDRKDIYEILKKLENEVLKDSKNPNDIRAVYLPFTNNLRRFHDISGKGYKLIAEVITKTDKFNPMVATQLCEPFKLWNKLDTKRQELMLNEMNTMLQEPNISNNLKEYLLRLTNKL

[16] = biological target: FAD-linked sulfhydryl oxidase ALR (Homo sapiens, UniProt P55789); assay: inhibitors of human ALR sulfhydryl oxidase, dose response, biochemical, H2O2 detection, luminescence, cherry-pick (AID 493248)
FAD-linked sulfhydryl oxidase ALR, sequence (P55789 whole entry, the tested form may be a part): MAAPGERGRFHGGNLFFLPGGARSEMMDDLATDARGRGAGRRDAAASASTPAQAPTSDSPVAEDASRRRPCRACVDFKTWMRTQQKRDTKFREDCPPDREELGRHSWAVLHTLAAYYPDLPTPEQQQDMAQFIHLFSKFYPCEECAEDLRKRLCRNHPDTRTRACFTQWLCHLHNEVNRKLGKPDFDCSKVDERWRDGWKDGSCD

[17] = biological target: T5, RNA-binding protein pos-1 (Caenorhabditis elegans, UniProt G5EF15); assay: inhibitors of POS-1/mex-3 RNA binding, dose response, biochemical, fluorescence polarization (AID 1964);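 note: purified POS-1 fused to maltose binding protein made in E. coli; potency of compounds blocking POS-1 binding to fluorescent RNA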
T5 sequence (G5EF15 whole entry): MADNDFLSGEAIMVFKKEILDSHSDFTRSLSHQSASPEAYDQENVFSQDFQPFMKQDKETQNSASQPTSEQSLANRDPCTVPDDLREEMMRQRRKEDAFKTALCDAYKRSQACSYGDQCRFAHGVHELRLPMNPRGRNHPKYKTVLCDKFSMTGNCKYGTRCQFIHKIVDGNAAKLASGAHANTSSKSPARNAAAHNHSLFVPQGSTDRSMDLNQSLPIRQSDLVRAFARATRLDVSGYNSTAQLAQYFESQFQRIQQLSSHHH

[18] = biological target: T6, Zinc finger protein mex-5 (Caenorhabditis elegans, UniProt Q9XUB2); assay: MEX-5/TCR-2 RNA interaction inhibitors, dose response, biochemical, C. elegans, fluorescence polarization (AID 1960)
T6 sequence (Q9XUB2 whole entry): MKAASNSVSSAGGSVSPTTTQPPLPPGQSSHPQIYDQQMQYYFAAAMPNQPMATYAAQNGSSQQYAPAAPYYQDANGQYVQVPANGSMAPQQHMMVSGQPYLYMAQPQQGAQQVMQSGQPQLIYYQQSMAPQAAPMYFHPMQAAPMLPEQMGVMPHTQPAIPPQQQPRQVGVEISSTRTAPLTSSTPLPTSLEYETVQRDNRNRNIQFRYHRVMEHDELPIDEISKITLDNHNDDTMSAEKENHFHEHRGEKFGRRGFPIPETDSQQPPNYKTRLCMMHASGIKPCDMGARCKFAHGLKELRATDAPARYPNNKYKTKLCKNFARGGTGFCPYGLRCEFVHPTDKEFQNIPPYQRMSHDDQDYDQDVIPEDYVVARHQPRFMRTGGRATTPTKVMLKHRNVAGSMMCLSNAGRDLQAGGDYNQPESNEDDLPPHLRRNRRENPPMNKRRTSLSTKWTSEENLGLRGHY

[19] = biological target: Induced myeloid leukemia cell differentiation protein Mcl-1 (Homo sapiens, UniProt Q07820); assay type: functional
Induced myeloid leukemia cell differentiation protein Mcl-1, sequence (Q07820 whole entry): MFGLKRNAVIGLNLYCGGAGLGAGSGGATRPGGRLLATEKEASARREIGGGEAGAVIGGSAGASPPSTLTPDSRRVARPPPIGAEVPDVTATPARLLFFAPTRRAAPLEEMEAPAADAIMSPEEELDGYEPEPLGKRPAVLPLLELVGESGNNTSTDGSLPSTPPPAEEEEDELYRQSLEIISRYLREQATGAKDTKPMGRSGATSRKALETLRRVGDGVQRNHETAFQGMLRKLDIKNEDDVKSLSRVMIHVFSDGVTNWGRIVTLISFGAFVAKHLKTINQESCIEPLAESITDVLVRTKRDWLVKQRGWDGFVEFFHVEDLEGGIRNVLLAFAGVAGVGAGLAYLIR

Protein Tat = biological target: T7, Protein Tat (Human immunodeficiency virus type 1 group M subtype B (isolate HXB2)(HIV-1), UniProt P04608); assay type: functional;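 note: tat binding to TAR RNA read out by fluorescence polarization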
T7 sequence (P04608 whole entry): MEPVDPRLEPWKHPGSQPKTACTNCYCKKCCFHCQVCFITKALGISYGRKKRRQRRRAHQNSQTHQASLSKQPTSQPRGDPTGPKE

T1 sequence (P11712 whole entry): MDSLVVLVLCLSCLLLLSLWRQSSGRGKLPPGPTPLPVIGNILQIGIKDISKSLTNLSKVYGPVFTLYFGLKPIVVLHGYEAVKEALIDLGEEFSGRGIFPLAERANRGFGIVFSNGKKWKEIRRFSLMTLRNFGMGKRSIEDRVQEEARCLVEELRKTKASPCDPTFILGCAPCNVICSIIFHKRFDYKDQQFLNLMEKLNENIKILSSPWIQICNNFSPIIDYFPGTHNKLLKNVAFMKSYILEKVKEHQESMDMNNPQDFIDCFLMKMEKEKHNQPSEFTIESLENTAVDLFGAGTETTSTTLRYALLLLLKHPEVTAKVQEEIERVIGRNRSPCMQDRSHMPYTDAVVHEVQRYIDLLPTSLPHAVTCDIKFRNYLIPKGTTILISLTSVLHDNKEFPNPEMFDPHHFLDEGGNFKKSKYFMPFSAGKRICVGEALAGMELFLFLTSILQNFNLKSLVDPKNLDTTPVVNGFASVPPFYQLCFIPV

## CC(C)C(c1nnnn1Cc1ccccc1)N(CCCO)Cc1cc2cc3c(cc2nc1O)OCO3 (centres undefined)
[1]
  EC50: > 50 µM (active)

## C[C@@H](/C=C\c1cccc(Oc2ccc(F)cc2)c1)N(O)C(N)=O
Cytochrome P450 2C9 [2]
  AC50: 25.1 µM (inconclusive)
Cytochrome P450 2D6
  AC50: 10 µM (inconclusive)
Cytochrome P450 2C9 [3]
  AC50: 31.6 µM (inconclusive)

## C[C@]12CC[C@H]3C(CCC4(O)CC(O)CC[C@]34C=O)C1=CC[C@H]2c1ccc(=O)oc1 (some centres undefined)
[4]
  EC50: 6.93 µM (active)
[5]
  EC50: 5.93 µM (active)
Vero
  CC50: 20.5 µM (active)
[6]
  EC50: 1.62 µM (active)
[7]
  AC50: 3.49 µM (active)
Galanin receptor type 3
  IC50: > 29.9 µM (inactive)
Cells [8]
  EC50: > 29.9 µM (inactive)

## CCNc1nc(N)nc(Oc2ccc(OCCOc3ccc(Cl)cc3Cl)nn2)n1
[1]
  EC50: > 50 µM (active)
[9]
  EC50: 0.668 µM (active)
[10]
  EC50: 6.72 µM (active)

## Cc1cc(C)nc(N2CCC(C(=O)O)CC2)n1
[11]
  IC50: > 100 µM (active)

## NC(=O)[C@H]1CC2(CC(c3cccc(NC(=O)COc4ccc(Cl)cc4)c3)=NO2)CN1C(=O)c1ccccc1C(=O)c1ccccc1 (some centres undefined)
[12]
  CC50: 12.3 µM (active)
Cells [13]
  IC50: 24.9 µM (active)

## CC(NCC(O)COc1ccc2ccccc2c1)c1ccccc1 (centres undefined)
[12]
  CC50: 24.1 µM (active)
[14]
  IC50: > 96.6 µM (inactive)
Cells [13]
  IC50: > 25 µM (active)

## O=C(Nc1cccc(C(F)(F)F)c1)N1CCC(c2nc(-c3ccc(F)cc3)no2)CC1
[15]
  CC50: > 40 µM (active)
Vero
  CC50: 12.6 µM (active)

## CCOc1ccc(NC(=O)C2CCCN(S(=O)(=O)c3c(C)n[nH]c3C)C2)cc1 (centres undefined)
[11]
  IC50: > 100 µM (active)

## Nc1ccc(-c2nc3ccc(N)cc3[nH]2)cc1
Aminopeptidase N
  IC50: 49.9 µM (active)
[16]
  AC50: 2.55 µM (active)
[14]
  IC50: 46.1 µM (inactive)

## Cc1cc(C)c2c(c1)C1C=CCC1C(c1ccc(S(=O)(=O)N3CCOCC3)cc1)N2 (centres undefined)
[12]
  CC50: 15.6 µM (active)
[17]
  EC50: > 300 µM (not active)
[18]
  EC50: > 300 µM (not active)
[19]
  IC50: 2.74 µM (active)
Cells [13]
  IC50: 11.7 µM (active)

## Cc1ccc(N2C(=O)[C@@H]3[C@H](C2=O)[C@H]2C=CC=NN2[C@@H]3C(=O)Nc2ccc(Cl)cc2)cc1
[1]
  EC50: > 50 µM (active)
Protein Tat
  IC50: > 100 µM (active)
[11]
  IC50: > 100 µM (active)

— ChEMBL document CHEMBL1201862, “PubChem BioAssay data set” (2004)
